Source: patent publication US20260053931A1, “MDM2 TARGETING PROTACS” (THE WISTAR INSTITUTE OF ANATOMY AND BIOLOGY, priority 2023, published 2026)

Tests used:
[1] = system: Mdm2-/-p53-/- sarcoma cells; assay: Murine Mdm2-/-p53-/- sarcoma cells, MTT; assay type: cell-based, mouse; conditions: MTT assay, 48 hrs
From the text: A-B. Murine Mdm2+/+p53-null sarcoma cells treated with Mdm2 PROTAC (YX-02-030), control YX-02-023 (−), or vehicle (DMSO). A. Western blots after 24 hrs (cleaved caspase 3, CC3. Mdm2^−/−p53^−/− fibroblasts were a control for the Western blot). B. Dose response curve (MTT assay, 48 hrs). C. Dose response curves of murine Mdm2^−/−p53^−/− sarcoma cells treated with Mdm2 PROTAC (YX-02-030), negative controls (−), a Bcl2/Bclx/Bclw inhibitor (+), or vehicle control (MTT assay, quadruplicate, 48 hrs- MTT assay, B-C graphed relative to DMSO).

Cal27 = assay: Cell death of other cancer cell lines: Cal27; assay type: cell-based; conditions: Homo sapiens, CAL-27; Cal27, Head & Neck
Procedure: The PROTACs prepared herein were tested for their use in other cancer cell lines to determine activity in multiple different types of cancer.

## CCOc1cc(C(C)(C)C)ccc1C1=N[C@](C)(c2ccc(Cl)cc2)[C@](C)(c2ccc(Cl)cc2)N1C(=O)N1CCN(CC(=O)NCCOCCOCCOCC(=O)N[C@H](C(=O)N2C[C@H](O)C[C@H]2C(=O)NCc2ccc(-c3scnc3C)cc2)C(C)(C)C)CC1 (racemic) [YX-02-030]
[1]
  response of Mdm2-/-p53-/- sarcoma cells: not responsive
Cal27
  IC50: 2300 nM
